Test results published in patent publication US12004506B2, “Pharmaceutical composition comprising a cyclic peptide of formula X1-[sequence]-X2 and use for extracorporeal lung treatment” (priority 2013, dated 2024).

Key:
[1] = system: non-ischemic pig donor lung; test: Ex vivo lung perfusion (EVLP) of non-ischemic pig donor lungs, inhalative application; conditions: inhalative application, 1 mg/kg, hourly T1 to T4, vs WFI control
Method: Brain death pigs were turned into dorsal position, and a longitudinal sternotomy was performed. The pericardium and both pleural cavities were opened. […] An inflow catheter was placed in the pulmonary artery through a purse-string on the right ventricular outflow tract.
The lungs (non-ischemic) were then preserved with an ante grade flush of cold isotonic preservation solution (50 ml per kg body weigh of pig, containing potassium ions, sodium ions, magnesium ions, calcium ions, chloride ions, dextran, glucose, buffering ions) through the inflow catheter. Incision of the left auricular appendix provides outflow. The lungs were ventilated during this period with 50% oxygen, and iced slush were placed in both pleural cavities and mediastinum.
The explanation technique was en bloc harvesting with heart and esophagus according to the following steps: • a) Dissection of soft tissue bridges to the thoracic cavity on both sides of the trachea. • b) Transsection of both pulmonal ligaments (very deep, difficult exposure), then of the VCI, the lower thoracic descendent aorta and the esophagus, respectively. • c) Blunt separation from remaining mediastinal adhesions. • d) Complete inflation of the donor lung prior of tracheal closure with a stapler.
After explantation, the lungs were wrapped in gauze, placed in an insulated ice bag filled with low-potassium dextran extracellular solution, and stored at 4° C. for 18 to 24 hours. A temperature probe was submerged in the container, which will be placed in a refrigerator.
For ex-vivo lung conditioning, the EVLP technique ([…]) was used. In the EVLP technique, donor lungs are placed into a circuit composed of a pump, ventilator and filters. EVLP technique, the temperature may increased up to 37 °C. In the EVLP, a ventilator is used to deliver oxygen to the lungs. The pump is used to perfuse the lungs with an extracellular solution containing human albumin and nutrition. During EVLP, the lung function can be evaluated regularly on key indicators. […]

[2] = system: transplanted pig lung; test: Re-implantation of pre-treated non-ischemic donor lungs in recipient pigs; type: in vivo; conditions: nebulisation 1 mg/kg, 24 h evaluation
Method: After the pre-treatment of the non-ischemic donor lungs with peptide SEQ ID NO:1 from Example 4 the lungs were re-implanted in recipient pigs. Shortly after reperfusion of the transplanted lungs peptide SEQ ID NO: 1 was administered.
A left thoracotomy through the sixth inter costal space was done, the left hilus was prepared. The hemiazygos vein on the left side was dissected and transected, as it is hiding both the left pulmonary artery and the left atrium. After dissection the ligated ends can be pulled to facilitate exposure of the OP field. The […] and bronchus are encircled. Left pneumonectomy was performed using vascular clamps. Immediately before the implantation single intravenous dose of methylprednisolone (500-1000 mg) and a low dose of heparin (100 IU/kg, see above) was applied. The donor lung was then reimplanted using 4-0 PDS for the bronchial anastomosis and 5-0 Prolene for the pulmonary artery and the left atrial anastomosis. In pigs, there is an additional lobe (caval lobe) of the right lung with 2 veins into the left atrium (1 separate vein for the caval lobe, 1 additional vein arising from the trunk of the main right lower lobe vein). […]
The left donor lung was evaluated for an additional period of 24 hours.
The following parameters have been assessed:
Functional assessment of graft function by oxygenation parameters: Arterial blood gas analyses as well as selective blood gas analysis from the left pulmonary veins were performed every 2 hours for 24 h. The respiratory index was calculated: RI=PaO2/FiO2.
Lung compliance was calculated from the pressure and volume data of the anesthesia ventilator. […]
Functional assessment of graft function by hemodynamic measurements (on-line measurements) and pulmonary vascular resistance (PVR): Hemodynamics, including pulmonary artery pressure (PAP) was measured continuously. Cardiac output (CO) was measured by using a Swan-Ganz catheter. Pulmonary vascular resistance is calculated by the following formula: PVR (dynes·[…]·cm−5)=(PAP−LAP)×80/CO.

[3] = Stability of aqueous solution of the cyclised compound; type: physicochemical
Source text: For administration by inhalation/spraying, e.g. in the form of an aerosol, either the aqueous solution from the first dissolution step, or the lyophilisates obtained, re-dissolved in water, is subjected to spraying (atomizing) to obtain an aerosol, e.g. by use of a nebulizer. […] The appropriate lower limit of the droplet size is dependent only from the feasibility of the droplets.

[4] = laboratory syringe, 2 to 8° C., T = 0 and T = 7 days
[5] = storage tank of a nebulizer, 25° C., T = 0 and T = 24 hours

C[C@@H]1NC(=O)CNC(=O)[C@H](CCC(=O)O)NC(=O)[C@@H]2CCCN2C(=O)[C@H]([C@@H](C)O)NC(=O)[C@H](CCC(=O)O)NC(=O)[C@H](CCCNC(=N)N)NC(=O)[C@H](CCC(N)=O)NC(=O)CNC(=O)[C@@H](N)CSSC[C@@H](C(=O)O)NC(=O)[C@H](Cc2ccc(O)cc2)NC(=O)[C@H](Cc2c[nH]c3ccccc23)NC(=O)[C@@H]2CCCN2C(=O)[C@H](CCCCN)NC(=O)[C@H](C)NC(=O)[C@H](CCC(=O)O)NC1=O [SEQ ID NO: 1]
dynamic lung compliance ([1]; FIG. 2A): improved
arterio-venous pO2 difference ΔpO2 ([1]; FIG. 2B): improved
development of lung oedema [2]: reduced
initial graft function and gas exchange [2]: improved
rate of ischemia reperfusion injury induced malfunction of the transplanted lung [2]: reduced
Purity (stability) ([3]; laboratory syringe, 2 to 8° C., T = 0): 96.3%
Amount/Content [3, 4]: 25 mg/mL
Appearance of aqueous solution [3, 4]: Clear solution
Purity (stability) ([3]; laboratory syringe, 2 to 8° C., T = 7 days): 96.2%
Purity (stability) ([3]; storage tank of a nebulizer, 25° C., T = 0): 96.6%
Amount/Content [3, 5]: 25 mg/mL
Appearance of aqueous solution [3, 5]: Clear solution
Purity (stability) ([3]; storage tank of a nebulizer, 25° C., T = 24 hours): 96.5%
